Laboratory results published in the supplement of paper PMC10307832.

What was measured:
Assay in all cases: relative viability (nuclei count vs DMSO), 5 days (fraction); higher = more cells survive
5-Fluorouracil = compound: O=c1[nH]cc(F)c(=O)[nH]1 [5-Fluorouracil]
How it was run: (§1)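 In 1536-well plates, lung cancer cell lines rested overnight at 37 °C before five library-drug doses (not always all listed), √10 apart, were pinned onto vehicle-anchored plates. Nuclei were counted with MetaXpress from 4× Hoechst images taken after 5 days without medium change. Viability compares treated-well with vehicle-well nuclei as a median over plates, and plates needed control CV below 25% plus at least one doubling to pass.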

Sulindac = compound: CC1=C(CC(=O)O)c2cc(F)ccc2/C1=C\c1ccc([S+](C)[O-])cc1 [Sulindac]
How it was run: as §1

Staurosporine = compound: CN[C@@H]1C[C@H]2O[C@@](C)([C@@H]1OC)n1c3ccccc3c3c4c(c5c6ccccc6n2c5c31)C(=O)NC4 [Staurosporine]
How it was run: as §1

[1] = compound: O=c1[nH]cc(F)c(=O)[nH]1 [5-Fluorouracil] + O=C(c1cc(Cc2n[nH]c(=O)c3ccccc23)ccc1F)N1CCN(C(=O)C2CC2)CC1 [Olaparib] (partner 8 µM)
How it was run: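 Five library-drug doses in √10 steps were combined with a fixed anchor-drug dose, or a single drug was given alone, by pin tool to lung cancer cell lines in 1536-well plates the day after seeding. Nuclei were stained and counted after 5 days. Relative viability is the nuclei count in treated wells over that in vehicle wells, taken as the median of duplicate plates.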

In the case of UMC-11, the relative viability (5-Fluorouracil; 0.02 µM) is reported as 0.952, the relative viability (5-Fluorouracil; 0.2 µM) is reported as 0.783 and the relative viability (5-Fluorouracil; 0.6325 µM) is reported as 0.519. For the same cell line, the relative viability (Sulindac; 0.08 µM) was 1.14, the relative viability (Sulindac; 0.253 µM) was 1.01 and the relative viability (Sulindac; 0.8 µM) was 0.824. It also gave a relative viability (Sulindac; 2.53 µM) of 0.869, a relative viability (Sulindac; 8 µM) of 1.11 and a relative viability (Staurosporine; 0.005 µM) of 0.977. It also gave a relative viability (Staurosporine; 0.01581 µM) of 0.328, a relative viability (Staurosporine; 0.05 µM) of 0.295 and a relative viability (Staurosporine; 0.1581 µM) of 0.123. The relative viability (Staurosporine; 0.5 µM) was 0.0871, the relative viability ([1]; first compound 0.02 µM) was 0.409 and the relative viability ([1]; first compound 0.2 µM) was 0.37. For the same cell line, the relative viability ([1]; first compound 0.6325 µM) was 0.334.
